Assay results taken from US20180325914A1, “INCREASING STORAGE OF VITAMIN A, VITAMIN D AND/OR LIPIDS” (Salk Institute for Biological Studies, priority 2014, published 2018).

Experiments:
[1] = system: primary murine HSCs; test: Lipid droplet accumulation assay (BODIPY staining); assay type: cell-based, mouse; conditions: day 6, JQ1 500 nM
Protocol: Primary murine HSCs were seeded onto chamber slides (Nunc). […] Media was aspirated, cells were washed twice with PBS (Gibco) and fixed in 10% buffered formalin at room temperature for 15 minutes. Fixative was removed and cells were washed three times with PBS. […] Dye was removed and cells were washed three times with PBS, then mounted using Vectastain mounting medium (Vector Labs). Fluorescence was visualized through the GFP filter on a Leica DM5000B fluorescent microscope. Nuclear counterstaining was performed using DAPI (Vector).

[2] = system: primary HSCs; test: qRT-PCR gene expression in primary murine HSCs; assay type: cell-based, mouse; conditions: JQ1 500 nM, RT-qPCR
[3] = system: primary HSCs; test: Cell viability assay (CellTiter Glo), primary HSCs; assay type: cell-based, mouse; conditions: dose-dependent manner
Protocol: Primary HSCs or LX-2 cells were seeded onto 96-well tissue culture plates.

[4] = system: primary HSCs; test: Cell proliferation assay (BrdU), primary HSCs; assay type: cell-based, mouse; conditions: JQ1 500 nM
Source text: BrdU-positive cells were counted under fluorescent microscope (Olympus, IX51).

[5] = system: Pancreatic cancer cell lines (AsPc1, MIAPaCa2, PancT and P53 2.1.1); test: Viability of pancreatic cancer cell lines in astromal or stromal hydrogels (Cell TiterGlo); assay type: cell-based; conditions: 500 nM JQ1, 72 hours, astromal or stromal culture conditions
Source text: Pancreatic cancer cell lines (AsPc1, MIAPaCa2, PancT and P53 2.1.1) were embedded in HyStem®-C hydrogels (ESI-BIO) at a concentration of 5×10^5 cells/ml. For astromal hydrogels, Glycosil® and Extralink™ components were resuspended in degassed H2O per manufacturer's procotol, and Glycosil®+degassed H2O+Extralink™ were combined in a 1:1:1 ratio. For the stromal hydrogels, Glycosil®, Gelin-S® (denatured collagens), and Extralink™ components were resuspended in degassed H2O per manufacturer's procotol, and Glycosil®+Gelin-S®+Extralink™ were combined in a 1:1:1 ratio. Pancreatic cancer cells were resuspended in the hydrogels and seeded into 96-well plates, 100 μl/well (5×10^4 cells/well). Triplicate wells were seeded for each condition to be tested. After hydrogel polymerization was evident (30-45 minutes), DMEM+10% FBS was added to astromal wells and conditioned media from cancer-associated PSCs was added to stromal wells. Conditioned media was prepared by growing primary cancer-associated PSCs (grown out of human pancreatic tumors) to confluency, changing to fresh DMEM+10% FBS, then collecting the media after 48 hours and passing through a 0.45 um filter to clear debris. […] Viability assays were performed after 72 hours using the Cell TiterGlo reagent (Promega) according to the manufacturer's instructions, but with a 45 minute incubation to ensure efficient lysis in 3D cultures.

[6] = system: C57BL/6J mice; test: CCl4 model of liver fibrosis, therapeutic study; assay type: in vivo, mouse; conditions: JQ1 50 mg/kg IP
Protocol: The animals were terminated 72 hours after the final CCl4 injection and whole livers were collected for histological, cytological, biochemical and molecular analyses.
5 μm sections of formalin-fixed liver were stained following standard hematoxylin-eosin (H&E) and Sirius Red methods and reviewed by a pathologist who was blinded to the experimental conditions. Fibrosis was scored using the Ishak modified histological activity index (HAI) scoring system. Liver fibrosis was also quantified using Image J software on 10 non-contiguous Sirius Red stained sections. […] fibrosis was quantified using hydroxyproline assay. All images were obtained using a high-resolution Leica DFC420 digital camera mounted on an Olympus microscope equipped with ×4/0.13, ×10/0.30, ×20/0.50 and ×40/0.75 UplanFL N plan objective lenses and processed with the Leica Application Suite. Tissue hydroxyproline content was measured using a kit from Biovision (K555-100).
Liver samples were deparaffinized and rehydrated in PBS. Following antigen retrieval with the target retrieval solution (Dako, Glostrup, Denmark), endogenous peroxidase activity was blocked by incubation with 0.3% hydrogen peroxide. […]
Therefore, the ability of JQ1 to prevent progression of ongoing liver fibrosis was determined. […]

[7] = system: primary murine HSCs; test: Immunocytochemistry (Acta2) of HSC activation into myofibroblasts; assay type: cell-based, mouse; conditions: day 6, JQ1 500 nM
Protocol: Primary murine HSCs were seeded onto chamber slides (Nunc). […] Media was aspirated, cells were washed twice with PBS (Gibco) and fixed in 10% buffered formalin at room temperature for 15 minutes. Fixative was removed and cells were washed three times with PBS. The slides were then blocked with 3% BSA and incubated with rabbit anti-ACTA2 antibody (at 1:100 dilution; Abcam) overnight at 4° C. After washing, the slides were incubated for 1 hour with Alexa Fluor546-labeled donkey anti-rabbit IgG antibody (at 1:200 dilution; Invitrogen). Finally, the slides were analyzed for fluorescence using an all-in-one type fluorescent microscope (BioZero BZ-9000; Keyence, Osaka, Japan). Nuclear counterstaining was performed using DAPI (Vector).

[8] = system: BRD2, BRD3, BRD4 (BETs) occupancy on chromatin; assay type: cell-based, human; conditions: LX-2 cells; 500 nM, 16 hr
Protocol: Cells were then harvested for ChIP assay. The experimental procedure for ChIP was as previously described.
The procedure was as previously described^5,31. Briefly, short DNA reads were demultiplexed using the Illumina CASAVA v1.8.2. […] Only tags that map uniquely to the genome were considered for further analysis. Subsequent peak calling and motif analysis were conducted using HOMER, a software suite for ChIP-Seq analysis. The methods for HOMER, which are described below, have been implemented and are freely available on the internet (biowhat.ucsd.edu/homer/). One tag from each unique position was considered to eliminate peaks resulting from clonal amplification of fragments during the ChIP-Seq protocol. Peaks were identified by searching for clusters of tags within a sliding 200 bp window, requiring adjacent clusters to be at least 1 kb away from each other. The threshold for the number of tags that determine a valid peak was selected for a false discovery rate of <0.01, as empirically determined by repeating the peak finding procedure using randomized tag positions. […] Peaks are annotated to gene products by identifying the nearest RefSeq transcriptional start site. Visualization of ChIP-Seq results was achieved by uploading custom tracks onto the UCSC genome browser.
BETs are chromatin regulators^7.

With Cc1sc2c(c1C)C(c1ccc(Cl)cc1)=N[C@@H](CC(=O)OC(C)(C)C)c1nnc(C)n1-2 [JQ1, (S)-tert-butyl 2-(4-(4-chlorophenyl)-2,3,9-trimethyl-6H-thieno[3,2-f][1,2,4]triazolo[4,3-a][1,4]diazepin-6-yl)acetate] the “morphology, Acta2 distribution and lipid content of treated cells” value [1] was “closely resembled quiescent (day 1) cells”, the “Ccnd2 and Myc expression” value [2] was “without perturbing” and the “induction of Pdgfrb and Ccnd1 during HSC activation” value [2] was “disrupted induction”. The “anti-proliferative activity against activated HSCs” value [3] was “significant anti-proliferative activity”, the “BrdU incorporation into activated HSCs” value [4] was “significant decrease” and the “growth of pancreatic cancer cell lines in vitro” value [5] was “significantly reduced”. For the same compound, the “progression of liver fibrosis (histological scoring, Sirius red, hydroxyproline, marker gene expression)” value ([6]; CCl4 three weeks, then CCl4/JQ1 co-treatment for three weeks) was “blocked the progression”, the “CCl4-induced HSC activation (quantitative Acta2 immunohistochemistry)” value ([6]; chronic CCl4) was “dramatically reduced” and the “HSCs transdifferentiation into myofibroblasts, phenotypically (morphology, Acta2 distribution)” value [7] was “dramatically arrested”. The “BET occupancy at the COL1A1 enhancer locus (ChIP)” value [8] was “significantly diminished”, the “PAF1 and CDK9 (elongation cofactors) on chromatin” value [8] was “displaced” and the “occupancy of BETs on chromatin (ChIP-Seq)” value [8] was “dramatically reduces”. The “recruitment of serine 2 phosphorylated form (S2p) of RNA Pol II” value [8] was “specific decrease”, the “sensitivity of BRD4 occupancy on super-enhancer regions to reduction, versus control enhancer regions” value [8] was “more sensitive” and the “serine 5 Pol II phospho-form (S5p)” value [8] was “little change”.
